Data taken from ChEMBL document CHEMBL1938230, “6-Position optimization of tricyclic 4-quinolone-based inhibitors of glycogen synthase kinase-3β: discovery of nitrile derivatives with picomolar potency” (Bioorg Med Chem Lett, 2012).

Experiments:
[1] = biological target: T1, Scaffold protein ILK (Homo sapiens) (UniProt Q13418); assay: Inhibition of human ILK in HL-60 cells lysate assessed as reduction of labeling of acyl-phosphate ATP probe at 100 nM; format: cell-free
T1 sequence (whole entry): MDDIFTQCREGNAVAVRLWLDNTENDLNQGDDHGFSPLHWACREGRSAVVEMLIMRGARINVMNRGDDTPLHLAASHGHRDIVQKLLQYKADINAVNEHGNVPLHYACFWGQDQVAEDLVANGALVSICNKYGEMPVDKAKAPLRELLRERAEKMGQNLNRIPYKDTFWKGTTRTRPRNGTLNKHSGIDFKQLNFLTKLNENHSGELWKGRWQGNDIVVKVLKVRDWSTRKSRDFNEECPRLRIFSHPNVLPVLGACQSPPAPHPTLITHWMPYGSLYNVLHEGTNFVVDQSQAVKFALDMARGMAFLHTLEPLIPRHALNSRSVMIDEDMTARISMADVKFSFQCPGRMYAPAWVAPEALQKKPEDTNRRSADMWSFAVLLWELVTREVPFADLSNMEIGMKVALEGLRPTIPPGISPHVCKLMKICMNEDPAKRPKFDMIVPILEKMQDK

[2] = biological target: Cyclin-dependent kinase 13 (Homo sapiens) (UniProt Q14004); assay: Inhibition of human CHED in HL-60 cells lysate assessed as reduction of labeling of acyl-phosphate ATP probe at 100 nM; format: cell-free
[3] = biological target: T2, Interleukin-1 receptor-associated kinase 4 (Homo sapiens) (UniProt Q9NWZ3); assay: Inhibition of human IRAK4 in HL-60 cells lysate assessed as reduction of labeling of acyl-phosphate ATP probe at 100 nM; format: cell-free
T2 sequence (whole entry): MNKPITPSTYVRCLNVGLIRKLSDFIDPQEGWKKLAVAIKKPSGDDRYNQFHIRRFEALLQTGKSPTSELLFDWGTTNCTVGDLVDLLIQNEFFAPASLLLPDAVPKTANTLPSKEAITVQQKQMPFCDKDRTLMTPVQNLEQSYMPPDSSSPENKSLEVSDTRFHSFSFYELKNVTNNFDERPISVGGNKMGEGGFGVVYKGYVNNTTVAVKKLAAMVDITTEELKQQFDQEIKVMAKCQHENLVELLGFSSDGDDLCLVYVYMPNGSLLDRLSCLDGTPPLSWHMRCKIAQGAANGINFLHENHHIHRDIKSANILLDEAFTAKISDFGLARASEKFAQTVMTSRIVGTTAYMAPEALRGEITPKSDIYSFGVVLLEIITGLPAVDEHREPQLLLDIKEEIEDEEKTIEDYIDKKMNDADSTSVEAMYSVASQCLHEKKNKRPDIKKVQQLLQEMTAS

[4] = biological target: PI4KA/PI4KAP2 (Homo sapiens) (UniProt P42356+A4QPH2); assay: Inhibition of human PI4KA/PI4KAP2 in HL-60 cells lysate assessed as reduction of labeling of acyl-phosphate ATP probe at 100 nM; format: cell-free
[5] = biological target: Glycogen synthase kinase-3 beta (Homo sapiens, UniProt P49841); assay: Inhibition of human GSK3-beta in HL-60 cells lysate assessed as reduction of labelling of acyl-phosphate ATP probe at 100 nM; format: cell-free
[6] = biological target: STE20-like serine/threonine-protein kinase SLK (Homo sapiens) (UniProt Q9H2G2); assay: Inhibition of human SLK in HL-60 cells lysate assessed as reduction of labeling of acyl-phosphate ATP probe at 100 nM
HL-60 = assay: Inhibition of human AurA/AurB/AurC in HL-60 cells lysate assessed as reduction of labeling of acyl-phosphate ATP probe at 100 nM
[7] = biological target: Cyclin-dependent kinase 7 (Homo sapiens) (UniProt P50613); assay: Inhibition of human CDK7 in HL-60 cells lysate assessed as reduction of labeling of acyl-phosphate ATP probe at 100 nM; format: cell-free
[8] = biological target: T3, EKC/KEOPS complex subunit TP53RK (Homo sapiens) (UniProt Q96S44); assay: Inhibition of human PRPK in HL-60 cells lysate assessed as reduction of labeling of acyl-phosphate ATP probe at 100 nM; format: cell-free
T3 sequence (whole entry): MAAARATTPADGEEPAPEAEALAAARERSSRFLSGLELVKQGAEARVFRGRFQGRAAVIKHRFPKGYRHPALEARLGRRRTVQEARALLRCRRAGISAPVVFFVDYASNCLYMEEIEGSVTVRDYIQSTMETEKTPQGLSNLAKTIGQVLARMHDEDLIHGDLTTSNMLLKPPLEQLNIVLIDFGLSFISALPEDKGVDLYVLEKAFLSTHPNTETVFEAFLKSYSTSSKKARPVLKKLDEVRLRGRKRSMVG

[9] = biological target: Mitogen-activated protein kinase kinase kinase 1 (Homo sapiens) (UniProt Q13233); assay: Inhibition of human MAP3K1 in HL-60 cells lysate assessed as reduction of labeling of acyl-phosphate ATP probe at 100 nM; format: cell-free
[10] = biological target: T4, Interleukin-1 receptor-associated kinase 3 (Homo sapiens) (UniProt Q9Y616); assay: Inhibition of human IRAK3 in HL-60 cells lysate assessed as reduction of labeling of acyl-phosphate ATP probe at 100 nM; format: cell-free
T4 sequence (whole entry): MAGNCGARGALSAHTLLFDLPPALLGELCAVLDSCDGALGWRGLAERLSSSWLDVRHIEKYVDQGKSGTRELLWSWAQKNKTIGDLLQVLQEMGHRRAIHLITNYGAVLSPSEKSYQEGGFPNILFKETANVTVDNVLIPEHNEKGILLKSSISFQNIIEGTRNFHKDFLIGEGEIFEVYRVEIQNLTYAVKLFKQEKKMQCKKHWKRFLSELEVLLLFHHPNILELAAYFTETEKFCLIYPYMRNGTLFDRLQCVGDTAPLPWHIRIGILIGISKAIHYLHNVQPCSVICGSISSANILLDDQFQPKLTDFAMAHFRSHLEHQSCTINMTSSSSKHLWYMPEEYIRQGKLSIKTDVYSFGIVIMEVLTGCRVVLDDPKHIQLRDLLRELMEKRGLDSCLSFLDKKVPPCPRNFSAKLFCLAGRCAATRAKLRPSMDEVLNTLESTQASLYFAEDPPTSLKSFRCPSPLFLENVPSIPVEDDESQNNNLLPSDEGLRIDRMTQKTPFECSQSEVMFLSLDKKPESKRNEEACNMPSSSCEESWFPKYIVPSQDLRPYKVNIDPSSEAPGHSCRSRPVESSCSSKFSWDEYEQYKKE

[11] = biological target: Serine/threonine-protein kinase Nek6 (Homo sapiens) (UniProt Q9HC98); assay: Inhibition of human NEK6 in HL-60 cells lysate assessed as reduction of labeling of acyl-phosphate ATP probe at 100 nM; format: cell-free
[12] = biological target: Tyrosine-protein kinase JAK1 (Homo sapiens) (UniProt P23458); assay: Inhibition of human JAK1 domain1 in HL-60 cells lysate assessed as reduction of labeling of acyl-phosphate ATP probe at 100 nM; format: cell-free
[13] = biological target: 1-phosphatidylinositol 3-phosphate 5-kinase (Homo sapiens) (UniProt Q9Y2I7); assay: Inhibition of human PIP5K3 in HL-60 cells lysate assessed as reduction of labeling of acyl-phosphate ATP probe at 100 nM; format: cell-free

PI4KA/PI4KAP2 (Homo sapiens), sequence (A4QPH2 whole entry, looked up): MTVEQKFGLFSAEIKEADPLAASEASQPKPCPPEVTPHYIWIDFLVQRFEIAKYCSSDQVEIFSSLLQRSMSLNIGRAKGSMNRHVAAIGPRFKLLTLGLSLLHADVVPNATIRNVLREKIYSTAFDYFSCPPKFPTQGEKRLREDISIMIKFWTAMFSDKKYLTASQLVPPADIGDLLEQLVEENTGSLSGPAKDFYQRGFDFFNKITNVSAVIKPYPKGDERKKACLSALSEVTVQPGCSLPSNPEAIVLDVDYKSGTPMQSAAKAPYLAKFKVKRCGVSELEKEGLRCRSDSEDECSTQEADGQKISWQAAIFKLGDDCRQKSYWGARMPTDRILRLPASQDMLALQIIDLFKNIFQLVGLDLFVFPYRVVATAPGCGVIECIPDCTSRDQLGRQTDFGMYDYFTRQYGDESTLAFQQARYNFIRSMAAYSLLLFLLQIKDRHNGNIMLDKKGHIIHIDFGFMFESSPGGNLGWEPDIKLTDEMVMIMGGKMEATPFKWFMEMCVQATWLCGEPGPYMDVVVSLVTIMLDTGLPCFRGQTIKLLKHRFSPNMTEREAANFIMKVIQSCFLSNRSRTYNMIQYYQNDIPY
PI4KA/PI4KAP2 (Homo sapiens), sequence (P42356 whole entry, looked up): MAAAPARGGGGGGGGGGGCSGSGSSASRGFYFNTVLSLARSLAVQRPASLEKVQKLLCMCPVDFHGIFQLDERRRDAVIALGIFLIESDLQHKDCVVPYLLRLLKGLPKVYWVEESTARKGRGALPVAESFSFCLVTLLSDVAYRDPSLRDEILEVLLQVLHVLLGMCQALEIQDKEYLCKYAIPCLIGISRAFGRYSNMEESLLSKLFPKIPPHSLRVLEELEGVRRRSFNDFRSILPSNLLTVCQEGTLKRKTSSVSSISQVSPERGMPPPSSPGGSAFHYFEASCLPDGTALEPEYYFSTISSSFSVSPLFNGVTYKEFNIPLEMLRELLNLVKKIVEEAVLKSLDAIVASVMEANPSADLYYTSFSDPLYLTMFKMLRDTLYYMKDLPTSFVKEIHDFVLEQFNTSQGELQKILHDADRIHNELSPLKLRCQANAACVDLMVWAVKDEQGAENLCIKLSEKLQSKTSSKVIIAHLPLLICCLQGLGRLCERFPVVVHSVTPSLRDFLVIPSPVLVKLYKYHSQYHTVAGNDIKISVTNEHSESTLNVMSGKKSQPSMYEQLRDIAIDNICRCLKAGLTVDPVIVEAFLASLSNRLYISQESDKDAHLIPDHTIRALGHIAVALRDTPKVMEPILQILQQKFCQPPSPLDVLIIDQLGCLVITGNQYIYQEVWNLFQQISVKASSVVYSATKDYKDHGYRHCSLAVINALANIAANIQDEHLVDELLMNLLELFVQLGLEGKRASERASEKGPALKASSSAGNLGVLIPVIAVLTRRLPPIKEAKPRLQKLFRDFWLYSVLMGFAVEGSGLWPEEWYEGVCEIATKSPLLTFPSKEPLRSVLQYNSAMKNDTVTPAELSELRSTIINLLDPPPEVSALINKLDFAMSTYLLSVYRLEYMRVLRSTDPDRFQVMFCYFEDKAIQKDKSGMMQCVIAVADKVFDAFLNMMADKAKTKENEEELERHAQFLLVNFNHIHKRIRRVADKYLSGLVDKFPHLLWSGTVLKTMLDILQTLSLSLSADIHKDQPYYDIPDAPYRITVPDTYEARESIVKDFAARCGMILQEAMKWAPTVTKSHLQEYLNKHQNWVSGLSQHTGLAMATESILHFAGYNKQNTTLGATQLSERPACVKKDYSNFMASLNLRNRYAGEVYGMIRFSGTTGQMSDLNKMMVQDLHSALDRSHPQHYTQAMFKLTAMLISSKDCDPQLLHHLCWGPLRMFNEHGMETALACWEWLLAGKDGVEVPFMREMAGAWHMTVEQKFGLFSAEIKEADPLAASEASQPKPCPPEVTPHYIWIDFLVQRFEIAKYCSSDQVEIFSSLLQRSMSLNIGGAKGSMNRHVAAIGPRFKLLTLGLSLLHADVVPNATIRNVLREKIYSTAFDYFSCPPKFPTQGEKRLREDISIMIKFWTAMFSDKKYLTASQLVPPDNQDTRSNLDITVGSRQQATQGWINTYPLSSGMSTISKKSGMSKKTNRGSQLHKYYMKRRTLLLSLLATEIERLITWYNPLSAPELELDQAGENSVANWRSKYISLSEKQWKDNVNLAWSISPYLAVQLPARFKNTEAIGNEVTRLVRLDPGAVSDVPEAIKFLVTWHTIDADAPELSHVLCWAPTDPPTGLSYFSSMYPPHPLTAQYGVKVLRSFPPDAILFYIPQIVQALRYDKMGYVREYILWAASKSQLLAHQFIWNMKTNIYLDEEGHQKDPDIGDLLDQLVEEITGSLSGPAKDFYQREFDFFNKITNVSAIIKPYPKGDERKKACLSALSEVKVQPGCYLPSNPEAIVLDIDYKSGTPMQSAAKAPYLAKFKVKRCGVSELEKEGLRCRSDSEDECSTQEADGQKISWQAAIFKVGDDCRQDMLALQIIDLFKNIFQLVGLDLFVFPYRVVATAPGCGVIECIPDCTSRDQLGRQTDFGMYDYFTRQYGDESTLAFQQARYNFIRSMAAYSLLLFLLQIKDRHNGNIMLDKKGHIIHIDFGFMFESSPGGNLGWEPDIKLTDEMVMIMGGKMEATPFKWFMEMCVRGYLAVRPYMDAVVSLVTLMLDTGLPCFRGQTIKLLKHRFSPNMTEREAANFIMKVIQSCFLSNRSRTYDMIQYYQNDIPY
Cyclin-dependent kinase 13 (Homo sapiens), sequence (Q14004 whole entry, looked up): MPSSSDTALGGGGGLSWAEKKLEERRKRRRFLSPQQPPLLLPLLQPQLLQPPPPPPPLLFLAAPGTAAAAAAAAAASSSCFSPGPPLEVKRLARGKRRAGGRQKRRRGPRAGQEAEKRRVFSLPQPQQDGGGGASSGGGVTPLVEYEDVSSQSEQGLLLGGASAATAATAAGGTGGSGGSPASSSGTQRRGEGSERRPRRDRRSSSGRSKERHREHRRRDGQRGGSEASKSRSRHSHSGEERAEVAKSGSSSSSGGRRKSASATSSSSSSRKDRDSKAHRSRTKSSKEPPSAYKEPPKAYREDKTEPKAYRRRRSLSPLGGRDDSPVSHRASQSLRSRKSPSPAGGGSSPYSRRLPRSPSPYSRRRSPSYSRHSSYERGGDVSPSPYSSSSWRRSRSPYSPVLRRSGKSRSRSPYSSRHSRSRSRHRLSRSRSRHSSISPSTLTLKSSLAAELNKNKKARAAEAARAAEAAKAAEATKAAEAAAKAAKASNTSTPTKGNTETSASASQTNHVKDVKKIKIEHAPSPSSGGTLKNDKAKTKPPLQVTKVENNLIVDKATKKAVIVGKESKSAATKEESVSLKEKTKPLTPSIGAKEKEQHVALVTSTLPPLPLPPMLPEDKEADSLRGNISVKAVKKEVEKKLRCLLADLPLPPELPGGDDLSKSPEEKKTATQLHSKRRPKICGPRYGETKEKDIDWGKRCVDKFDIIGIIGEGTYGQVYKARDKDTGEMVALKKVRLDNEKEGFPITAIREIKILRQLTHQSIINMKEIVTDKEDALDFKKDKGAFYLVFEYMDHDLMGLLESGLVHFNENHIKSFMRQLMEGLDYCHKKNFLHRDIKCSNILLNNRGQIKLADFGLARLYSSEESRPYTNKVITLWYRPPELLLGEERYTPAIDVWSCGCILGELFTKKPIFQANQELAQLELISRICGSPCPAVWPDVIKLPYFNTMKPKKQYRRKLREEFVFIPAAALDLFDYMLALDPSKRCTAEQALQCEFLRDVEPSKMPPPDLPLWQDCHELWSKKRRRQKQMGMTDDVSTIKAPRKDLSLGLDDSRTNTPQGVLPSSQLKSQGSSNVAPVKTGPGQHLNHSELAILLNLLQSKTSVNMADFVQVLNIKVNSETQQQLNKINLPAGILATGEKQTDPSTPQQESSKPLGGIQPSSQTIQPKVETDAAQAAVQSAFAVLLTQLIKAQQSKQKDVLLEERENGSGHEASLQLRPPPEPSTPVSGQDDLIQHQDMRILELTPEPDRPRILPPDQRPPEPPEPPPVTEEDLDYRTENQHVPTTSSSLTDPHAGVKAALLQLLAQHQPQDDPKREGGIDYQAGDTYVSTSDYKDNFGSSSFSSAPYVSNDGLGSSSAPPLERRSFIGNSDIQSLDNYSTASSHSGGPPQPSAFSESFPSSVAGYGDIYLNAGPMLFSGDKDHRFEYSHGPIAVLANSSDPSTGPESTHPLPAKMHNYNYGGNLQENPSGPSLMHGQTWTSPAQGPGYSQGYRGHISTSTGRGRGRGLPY
Cyclin-dependent kinase 7 (Homo sapiens), sequence (P50613 whole entry): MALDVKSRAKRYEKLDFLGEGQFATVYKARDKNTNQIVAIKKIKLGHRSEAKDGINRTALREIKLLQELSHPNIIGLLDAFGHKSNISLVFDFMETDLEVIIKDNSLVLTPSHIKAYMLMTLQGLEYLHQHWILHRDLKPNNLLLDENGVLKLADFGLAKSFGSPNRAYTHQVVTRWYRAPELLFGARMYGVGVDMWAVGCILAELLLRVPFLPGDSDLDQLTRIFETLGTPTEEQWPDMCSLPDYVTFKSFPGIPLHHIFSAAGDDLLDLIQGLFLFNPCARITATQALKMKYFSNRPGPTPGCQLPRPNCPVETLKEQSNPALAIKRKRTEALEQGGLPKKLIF
Serine/threonine-protein kinase Nek6 (Homo sapiens), sequence (Q9HC98 whole entry, the tested form may be a part): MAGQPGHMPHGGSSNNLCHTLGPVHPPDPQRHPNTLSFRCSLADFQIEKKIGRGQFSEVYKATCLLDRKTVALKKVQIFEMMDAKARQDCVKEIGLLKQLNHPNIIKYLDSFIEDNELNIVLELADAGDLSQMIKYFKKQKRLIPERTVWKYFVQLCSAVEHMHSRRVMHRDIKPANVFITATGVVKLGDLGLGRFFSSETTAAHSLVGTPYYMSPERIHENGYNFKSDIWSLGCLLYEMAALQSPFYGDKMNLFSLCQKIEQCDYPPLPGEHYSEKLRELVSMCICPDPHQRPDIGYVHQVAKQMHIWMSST

| inhibition [1] | inhibition [2] | inhibition [3] | inhibition [4] | inhibition [5] | inhibition [6] | inhibition [7] | inhibition [8] | inhibition [9] | inhibition [10] | inhibition [11] | inhibition [12] | inhibition [13] | Structure (SMILES) | inhibition at 0.1 µM (HL-60) |
| --- | --- | --- | --- | --- | --- | --- | --- | --- | --- | --- | --- | --- | --- | --- |
| < 35% | < 35% | < 35% | < 35% | > 99.5% | < 35% | < 35% | < 35% | < 35% | < 35% | < 35% | < 35% | < 35% | C[C@H]1COc2c(NCCCc3ccccn3)c(F)c(N)c3c(=O)c(C#N)cn1c23 | < 35% |
| < 35% | < 35% | < 35% | < 35% | 99.2% | < 35% | < 35% | < 35% | < 35% | < 35% | < 35% | < 35% | < 35% | C[C@H]1COc2c(NCCCn3cccn3)c(F)c(N)c3c(=O)c(C#N)cn1c23 | < 35% |
| < 35% | < 35% | < 35% | < 35% | 82.9% | < 35% | < 35% | < 35% | < 35% | < 35% | < 35% | < 35% | < 35% | C[C@H]1COc2c(NCCCc3ccccn3)c(F)c(N)c3c(=O)c(C(=O)O)cn1c23 | < 35% |
| < 35% | < 35% | < 35% | < 35% | 87.8% | < 35% | < 35% | < 35% | < 35% | < 35% | < 35% | < 35% | < 35% | C[C@H]1COc2c(NCCCn3cccn3)c(F)c(N)c3c(=O)c(C(=O)O)cn1c23 | < 35% |
